In PMC6934184, “Selective DNA-PKcs inhibition extends the therapeutic index of localized radiotherapy and chemotherapy” (The Journal of Clinical Investigation, 2019) one finds inhibition data, which are given here for 1 molecule.

Each structure is given as a SMILES string.

For this test, the target named is T1, ALK L1196M (Homo sapiens, UniProt Q9UM73, L1196M).
T1 construct: purchased Thermo Fisher Scientific (Life Technologies) SelectScreen
Nature of the test: SelectScreen LanthaScreen. It counts as binding. The note with it: read-out: % displacement. The gist of the method:
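NU5455 was profiled across the SelectScreen Broad panel of kinase activity and binding assays. Z'LYTE reactions such as CSF1R ran at apparent Km ATP, while the Adapta CAMK1 assay used ATP listed as 10. Values are given as percent.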
A general note: Time-resolved FRET reads energy transfer from a long-lived donor to a nearby acceptor.

T1 sequence (Q9UM73 19-1620 L1196M): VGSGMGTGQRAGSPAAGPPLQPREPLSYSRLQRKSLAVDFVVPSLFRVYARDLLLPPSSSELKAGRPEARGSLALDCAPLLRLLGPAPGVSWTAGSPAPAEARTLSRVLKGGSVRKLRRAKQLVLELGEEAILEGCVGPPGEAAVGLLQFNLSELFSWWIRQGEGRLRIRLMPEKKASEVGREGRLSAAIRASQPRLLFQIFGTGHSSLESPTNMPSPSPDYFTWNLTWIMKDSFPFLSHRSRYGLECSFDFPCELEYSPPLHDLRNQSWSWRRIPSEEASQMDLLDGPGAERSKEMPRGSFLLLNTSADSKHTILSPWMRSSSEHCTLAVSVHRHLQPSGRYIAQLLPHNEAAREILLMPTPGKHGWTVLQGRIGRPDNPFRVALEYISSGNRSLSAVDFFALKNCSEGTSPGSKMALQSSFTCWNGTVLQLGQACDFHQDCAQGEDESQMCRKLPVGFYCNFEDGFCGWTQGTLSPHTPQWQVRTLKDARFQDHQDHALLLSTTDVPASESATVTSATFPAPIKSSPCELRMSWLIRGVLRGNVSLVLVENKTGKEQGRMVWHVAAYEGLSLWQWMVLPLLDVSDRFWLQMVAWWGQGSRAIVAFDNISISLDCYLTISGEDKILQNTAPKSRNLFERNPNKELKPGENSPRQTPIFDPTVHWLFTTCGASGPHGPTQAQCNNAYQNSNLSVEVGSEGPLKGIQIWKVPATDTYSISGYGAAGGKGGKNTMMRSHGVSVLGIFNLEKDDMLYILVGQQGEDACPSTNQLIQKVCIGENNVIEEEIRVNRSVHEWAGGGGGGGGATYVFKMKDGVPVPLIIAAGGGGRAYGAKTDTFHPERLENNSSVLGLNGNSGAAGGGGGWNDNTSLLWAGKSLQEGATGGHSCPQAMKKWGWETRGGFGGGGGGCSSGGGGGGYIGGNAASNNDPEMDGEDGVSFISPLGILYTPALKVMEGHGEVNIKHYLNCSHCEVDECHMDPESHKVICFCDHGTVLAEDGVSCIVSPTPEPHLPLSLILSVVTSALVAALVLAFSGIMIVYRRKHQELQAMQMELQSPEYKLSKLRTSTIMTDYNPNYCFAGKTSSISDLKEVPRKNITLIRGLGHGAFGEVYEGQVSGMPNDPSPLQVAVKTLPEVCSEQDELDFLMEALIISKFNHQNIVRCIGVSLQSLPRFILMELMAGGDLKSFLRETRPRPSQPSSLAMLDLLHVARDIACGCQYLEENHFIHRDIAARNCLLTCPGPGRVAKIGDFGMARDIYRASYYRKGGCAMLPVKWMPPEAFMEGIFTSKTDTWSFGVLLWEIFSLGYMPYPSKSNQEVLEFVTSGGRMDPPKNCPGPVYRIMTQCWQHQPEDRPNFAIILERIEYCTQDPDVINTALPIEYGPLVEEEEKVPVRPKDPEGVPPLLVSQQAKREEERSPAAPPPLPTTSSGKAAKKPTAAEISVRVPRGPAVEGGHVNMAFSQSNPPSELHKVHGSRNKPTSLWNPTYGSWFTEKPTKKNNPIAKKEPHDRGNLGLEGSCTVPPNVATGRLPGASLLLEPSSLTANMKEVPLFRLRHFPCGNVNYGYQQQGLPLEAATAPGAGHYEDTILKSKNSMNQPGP

Turning to `CN(C(=O)CN1CCOCC1)c1ccc2sc3c(-c4cccc5c(=O)cc(N6CC7CCC(C6)O7)oc45)cccc3c2c1` [NU5455], the inhibition at 1 µM is -1.7%.
